Results from patent publication US10968225B2, “Compounds and compositions for the treatment of cystic fibrosis” (Fondazione Istituto Italiano Di Tecnologia, priority 2017, dated 2021).

Tests used:
Format in all cases: cell-based
mutant CFTR = target: T1, mutant CFTR (Homo sapiens, UniProt P13569, DEL508-508); test: Fluorescence (HS-YFP) assay for CFTR activity, corrector assay; conditions: CFBE41o- and FRT cells with stable expression of mutant CFTR, read-out: activity (EC50)
T1 construct: expressed in transfected cells
T1 sequence (P13569 with tags, fused parts or gaps DEL508-508): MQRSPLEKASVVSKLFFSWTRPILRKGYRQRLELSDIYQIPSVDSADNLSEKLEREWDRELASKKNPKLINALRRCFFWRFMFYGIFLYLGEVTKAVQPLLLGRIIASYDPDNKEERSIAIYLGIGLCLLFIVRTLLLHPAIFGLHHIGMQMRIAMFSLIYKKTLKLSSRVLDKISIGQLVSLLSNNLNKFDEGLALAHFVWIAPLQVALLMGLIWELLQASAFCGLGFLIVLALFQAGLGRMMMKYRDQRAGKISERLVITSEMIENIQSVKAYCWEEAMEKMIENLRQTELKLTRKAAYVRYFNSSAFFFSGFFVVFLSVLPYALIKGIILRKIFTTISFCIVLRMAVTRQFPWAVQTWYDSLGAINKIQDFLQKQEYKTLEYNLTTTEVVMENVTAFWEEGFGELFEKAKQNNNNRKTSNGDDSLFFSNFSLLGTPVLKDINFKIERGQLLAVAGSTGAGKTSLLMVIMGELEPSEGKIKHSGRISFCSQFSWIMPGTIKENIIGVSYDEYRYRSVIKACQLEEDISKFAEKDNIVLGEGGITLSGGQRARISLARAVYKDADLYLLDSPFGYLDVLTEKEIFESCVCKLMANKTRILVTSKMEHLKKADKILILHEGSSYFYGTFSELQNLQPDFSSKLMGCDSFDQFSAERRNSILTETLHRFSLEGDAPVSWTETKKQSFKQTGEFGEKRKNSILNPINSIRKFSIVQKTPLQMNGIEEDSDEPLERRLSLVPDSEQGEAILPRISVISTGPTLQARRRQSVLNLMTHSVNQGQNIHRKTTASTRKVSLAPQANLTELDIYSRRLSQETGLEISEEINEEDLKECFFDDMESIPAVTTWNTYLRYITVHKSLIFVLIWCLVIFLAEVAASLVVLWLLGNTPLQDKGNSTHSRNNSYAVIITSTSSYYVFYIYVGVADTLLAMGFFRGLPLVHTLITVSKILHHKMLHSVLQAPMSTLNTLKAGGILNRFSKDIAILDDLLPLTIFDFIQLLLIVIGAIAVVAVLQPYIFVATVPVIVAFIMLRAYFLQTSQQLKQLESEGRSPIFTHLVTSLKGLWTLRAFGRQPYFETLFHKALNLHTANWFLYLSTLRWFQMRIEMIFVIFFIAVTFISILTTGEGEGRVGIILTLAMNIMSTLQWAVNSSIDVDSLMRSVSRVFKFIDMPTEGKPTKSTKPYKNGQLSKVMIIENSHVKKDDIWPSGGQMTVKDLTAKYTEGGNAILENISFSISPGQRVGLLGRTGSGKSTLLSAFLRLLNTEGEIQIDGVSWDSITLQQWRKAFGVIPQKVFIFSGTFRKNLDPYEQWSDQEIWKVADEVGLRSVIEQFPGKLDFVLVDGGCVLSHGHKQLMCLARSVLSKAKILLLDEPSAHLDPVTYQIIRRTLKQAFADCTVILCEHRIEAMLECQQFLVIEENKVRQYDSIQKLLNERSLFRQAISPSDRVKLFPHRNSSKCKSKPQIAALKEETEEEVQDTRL

F508del-CFTR [1] = target: T2, F508del-CFTR (Homo sapiens, UniProt P13569, DEL508-508); test: Transepithelial electrical conductance (TEEC) in FRT cells; set-up: expressed in transfected cells; host or cells: FRT cells; conditions: compounds tested at 5.0 µM; FRT cells expressing F508del-CFTR; 24 hrs incubation; forskolin and genistein stimulation minus PPQ-102 block
T2 sequence (P13569 with tags, fused parts or gaps DEL508-508): as above
Procedure: Transepithelial Electrical Conductance (TEEC)
FRT cells expressing F508del-CFTR were plated on HTS Transwell-24 well permeable supports (Code 3379, Corning Life Sciences) at a density of 200,000 cells/well. After six days, cells were incubated for 24 hrs with test correctors, vehicle, or VX-809. Compounds were dissolved in both basolateral (800 μL) and apical (300 μL) culture medium. After treatment, the culture medium was removed and replaced on both sides with a saline solution containing (in mM): 130 NaCl, 2.7 KCl, 1.5 KH2PO4, 1 CaCl2, 0.5 MgCl2, 10 glucose, 10 Na-Hepes (pH 7.4). The basolateral and apical side received 800 μL and 100 μL, respectively. The 24-well tray with cells was placed on a block heater (SBH 130D, Stuart) to keep the temperature at 37° C. during the entire experiment. After 10 min, the basal transepithelial electrical resistance (TEER) across each layer of FRT cells was measured with a STX100C electrode pair connected to an EVOM2 voltohmeter (World Precision Instruments). To stimulate F508del-CFTR, each well received (apical side) 50 μL of saline solution containing 60 μM forskolin and 150 μM genistein (final concentrations: 20 μM forskolin, 50 μM genistein). Forskolin was also pipetted in the basolateral medium to obtain the 20 μM concentration. After 10 min TEER was measured again in each well. To block F508del-CFTR function, the inhibitor PPQ-102 was used at the final concentration of 30 μM. To achieve the desired concentration, 75 μL of the apical solution in each well was replaced with an equal volume of saline solution containing 20 μM forskolin, 50 μM genistein, and 60 μM PPQ-102. After further 10 min, the transepithelial electrical resistance was measured. All values of TEER were converted to transepithelial electrical conductance (TEEC) using the formula TEEC=1/TEER. The parameter to indicate activity of F508del-CFTR in each well (ΔTEEC) was calculated from the difference in TEEC measured after maximal stimulation of F508del-CFTR with forskolin and genistein and after block with PPQ-102.
Corrector activities obtained on selected compounds tested at 5.0 µM (expressed as ΔTEEC values) are illustrated in table 2, wherein +: ΔTEEC<2000 µS; ++: 2000 µS<ΔTEEC<3000[…]S; +++: ΔTEEC>3000 µS.

F508del-CFTR [2] = target: T2, F508del-CFTR; test: Short-circuit current recordings on human bronchial epithelial cells; set-up: Human bronchial epithelial (HBE) cells obtained from CF patients (F508del/F508del genotype); endogenous in cells; host or cells: primary human bronchial epithelial cells from CF patients, F508del/F508del; conditions: compounds tested at 1.0 µM; HBE cells from CF patients (F508del/F508del); 24 hrs treatment; CPT-cAMP plus VX-770 minus CFTRinh-172
Procedure: Short-Circuit Current Recordings on Human Bronchial Epithelial Cells
Human bronchial epithelial (HBE) cells obtained from CF patients (F508del/F508del genotype) were plated on Snapwell inserts (Code 3801, Corning Life Sciences) at a density of 500,000 cells per insert. Cells were cultured for two weeks in a differentiating medium whose compositions has been previously described (Scudieri et al., J Physiol 590:6141-6155, 2012). For the first week, the medium was kept on both apical and basolateral sides of inserts (submerged condition). For the second week, the apical medium was removed (air-liquid condition, ALC). To test the activity of correctors, cells were treated for 24 hrs with compounds dissolved in the basolateral medium. After treatment, Snapwell inserts carrying differentiated bronchial epithelia were mounted in a vertical chamber resembling an Ussing system with internal fluid circulation. Both apical and basolateral hemichambers were filled with 5 mL of a Krebs bicarbonate solution containing (in mM): 126 NaCl, 0.38 KH2PO4, 2.13 K2HPO4, 1 MgSO4, 1 CaCl2, 24 NaHCO3, and 10 glucose. Both sides were continuously bubbled with a gas mixture containing 5% CO2-95% air and the temperature of the solution was kept at 37° C. The transepithelial voltage was short-circuited with a voltage-clamp (DVC-1000, World Precision Instruments) connected to the apical and basolateral chambers via Ag/AgCl electrodes and agar bridges (1 M KCl in 1% agar). The offset between voltage electrodes and the fluid resistance were canceled before experiments. The short-circuit current was recorded with a PowerLab 4/25 (ADInstruments) analogical to digital converter connected to a Macintosh computer. […] The difference between the current measured with CPT-cAMP plus potentiator and the current remaining after CFTRinh-172 treatment ([…]ICFTR) was taken as the parameter reflecting F508del-CFTR expression in the apical membrane.
Activities of selected compounds on HBE cells tested at 1.0 µM (expressed as […]ICFTR) are illustrated in table 3 wherein +: […]ICFTR<2.0 µA; ++: 2 μA<[…]ICFTR<3.0 μA; +++: […]ICFTR>3.0 µA.

SMILES	EC50 (mutant CFTR)	Corrector activity (expressed as ΔTEEC values) (F508del-CFTR [1])	activity on HBE cells (expressed as […]ICFTR) (F508del-CFTR [2])
CN(C(=O)c1cccc(-n2nc(C(F)(F)F)c3c2CC2CCC3N2C(=O)OC(C)(C)C)c1)c1ccc2c(c1)OCO2 (racemic) [Compound 018, tert-Butyl 1-(3-(benzo[d][1,3]dioxol-5-yl(methyl)carbamoyl)phenyl)-3-(trifluoromethyl)-1,4,5,6,7,8-hexahydro-4,7-epiminocyclohepta[c]pyrazole-9-carboxylate]	< 1000 nM	+++ (ΔTEEC>3000 µS)	+++ ([…]ICFTR>3.0 µA)
CN(C(=O)c1cccc(-n2nc(C(F)(F)F)c3c2CCN(C(=O)C(C)(C)C)C3)c1)c1ccc2c(c1)OCO2 [Compound 011, N-(1,3-Benzodioxol-5-yl)-3-[5-(2,2-dimethylpropanoyl)-3-(trifluoromethyl)-6,7-dihydro-4H-pyrazolo[4,3-c]pyridin-1-yl]-N-methyl-benzamide]	< 1000 nM	++ (2000 µS<ΔTEEC<3000[…]S)	++ (2 μA<[…]ICFTR<3.0 μA)
COC(=O)c1cccc(CN2CCc3c(c(C(F)(F)F)nn3-c3cccc(C(=O)N(C)c4ccc5c(c4)OCO5)c3)C2)c1 [Compound 020, Methyl 3-[[1-[3-[1,3-benzodioxol-5-yl(methyl)carbamoyl]phenyl]-3-(trifluoromethyl)-6,7-dihydro-4H-pyrazolo[4,3-c]pyridin-5-yl]methyl]benzoate]	< 1000 nM	+++ (ΔTEEC>3000 µS)	++ (2 μA<[…]ICFTR<3.0 μA)
CN1CCc2c(c(C(F)(F)F)nn2-c2cccc(C(=O)N(C)c3ccc4c(c3)OCO4)c2)C1 [Compound 003, N-(1,3-Benzodioxol-5-yl)-N-methyl-3-[5-methyl-3-(trifluoromethyl)-6,7-dihydro-4H-pyrazolo[4,3-c]pyridin-1-yl]benzamide]	< 1000 nM	++ (2000 µS<ΔTEEC<3000[…]S)	++ (2 μA<[…]ICFTR<3.0 μA)
CN(C(=O)c1cccc(-n2nc(C(F)(F)F)c3c2CCN(C2CCC2)C3)c1)c1ccc2c(c1)OCO2 [Compound 032, N-(1,3-Benzodioxol-5-yl)-3-[5-cyclobutyl-3-(trifluoromethyl)-6,7-dihydro-4H-pyrazolo[4,3-c]pyridin-1-yl]-N-methyl-benzamide]	< 1000 nM	++ (2000 µS<ΔTEEC<3000[…]S)	++ (2 μA<[…]ICFTR<3.0 μA)
